Measurements published in patent US20240208972A1, “LRRK2 INHIBITORS AND USES THEREOF” (NEURON23, INC., priority 2022, published 2024).

Legend:
[1] = target: T1, wt human LRRK2, catalytic site (Homo sapiens, UniProt Q5S007); assay: TR-FRET LanthaScreen Tb Kinase Activity Assay, LRRK2 kinase inhibition; type: biochemical; details: 2 nM wt human LRRK2, 400 nM peptide, 38 μM ATP
T1 construct: wt human LRRK2, catalytic site, catalytic site (ThermoFisher/USA); purchased ThermoFisher
Description: The compounds disclosed herein were tested for their inhibitory effect on LRRK2 kinase according to the following procedures.
The protocol for basic TR-FRET LanthaScreen Tb Kinase Activity Assay inhibitor studies is as follows. LanthaScreen Kinase Activity Assays (ThermoFisher/USA) to evaluate inhibitors were performed by addition of 100 nL of test compound in the corresponding DMSO dilutions/5 L of kinase/fluorescein-ERM(LRRKtide) peptide mixture, Compound & kinase were pre-incubated for 15 minutes, then 5 μl of ATP into 384 well small volume plates. After incubation for 120 minutes at room temperature, the detection reagents containing Tb-anti-pLRRKtide antibody were added to monitor the phosphrylation level of peptide. Then, after 60 min minutes incubation at room temperature plates were read in Envision. Data analysis of emission ratios was according to the LanthaScreen Tb Kinase Activity Assay protocol.
Kinase and assay components were adjusted to final concentrations according to the kit protocol. For LRRK2: 2 nM wt human LRRK2, catalytic site, catalytic site (ThermoFisher/USA), 400 nM peptide, 38 μM ATP in 1× Kinase Buffer A.
Basic protocol for TR-FRET LanthaScreen Tb Kinase Activity Assay inhibitor studies involved two steps: Enzymatic step: Addition of 100 nl of test compound in corresponding DMSO dilutions, 5 μl of kinase/substrate mixture, 5 μl of ATP into 384 well small volume plates. Incubation for 120 minutes at room temperature.
Detection step: Addition of 10 μl EDTA & antibody, read plate after 60 minutes. Data analysis of emission ratios according to KinEASE assay protocol.
Kinase and assay components were adjusted to final concentrations according to the kit protocol.

Caco-2 cells = assay: Caco-2 bidirectional permeability; type: in vitro ADME; details: for Caco-2 A2B (10^−6 cm/s): A to B; for Caco-2 A2B (10^−6 cm/s) / Caco-2 B2A (10^−6 cm/s): HBSS pH 7.4, 2 hours; for Caco-2 B2A (10^−6 cm/s): B to A; for Caco-2 ER: Efflux Ratio=Papp (BA)/Papp (AB)
Description: The compounds disclosed herein were tested in vitro on CaCo2 cell penetration according to the following procedures.
Test compounds were prepared in dimethyl sulfoxide (DMSO).
Caco-2 cells purchased from ATCC were seeded onto […] (PET) in 96-well Corning Insert plates at 1×10^5 cells/cm^2. The media were refreshed every 4 to 5 days until the 21st to 28th day for confluent cell monolayer formation.
Experiments were run in duplicate using a HBSS transport buffer containing 10 mM HEPES at pH 7.4. The test article TEST COMPOUND was tested bi-directionally at […] concentrations, the control compound digoxin was tested bi-directionally at 10 μM, and nadolol and metoprolol were tested at 2.0 μM in the A to B direction. Final DMSO concentrations were adjusted to less than 1%. The plates were incubated for 2 hours in a CO2 incubator at 37±1° C. with 5% CO2 at saturated humidity without shaking. Following incubation, samples were mixed with acetonitrile containing internal standard and centrifuged at 3200×g for 10 minutes. Then 200 μL of supernatant was taken from all samples. For TEST COMPOUND and digoxin, the supernatant was diluted with 200 μL of ultra-pure water and for nadolol and metoprolol, the supernatant was diluted with 600 μL of ultra-pure water. All samples were analyzed by LC-MS/MS. Concentrations of TEST COMPOUND and control compounds were determined in starting solutions, donor well solutions, and receiver well solutions using peak area ratios (PAR) of analyte to internal standard. After the transport assay, a lucifer yellow rejection assay was run to determine the Caco-2 cell monolayer integrity.
The apparent permeability (Papp), the % recovery and the efflux ratio were calculated as follows: • 1. Papp=(dCr/dt)×Vr/(A×C0) • 2. % Recovery=100×[(Vr×Cr)+(Vd×Cd)]/(Vd×C0) • 3. Efflux Ratio=Papp (BA)/Papp (AB) • Where: • dCr/dt is the slope of the cumulative concentration in the receiver compartment versus time (mM/s). • Vr and Vd is the volume in the receiver and donor compartments (0.075 mL on the apical side, 0.25 mL on the basolateral side), respectively. • A is the surface area of the cell monolayer (0.0804 cm^2). • C0 is the measured donor concentrations (μM) at the beginning of the experiment. • Cd and Cr are the final measured concentrations in the donor and receiver compartments, respectively.
The cell monolayer tight junction integrity assay was conducted after completion of the transport assay by adding Lucifer Yellow (LY) to the apical wells at 100 μM and incubating the cells for 30 minutes. Following incubation, tight junction integrity was assessed from LY concentrations in the basolateral compartment (receiver well) and the apical compartment (donor well) using fluorescence detection as follows: […]

[2] = Human liver microsomal clearance (hLM Cl); type: in vitro ADME; details: cells marked *
[3] = Human hepatocyte stability, in vitro h-Hept CLpredict; type: in vitro ADME; details: cryopreserved hepatocytes, predicted hepatic clearance, cells without asterisk, read-out: hHep Cl
Description: The compounds disclosed herein were tested in vitro on human hepatocyte for in vitro h-Hept CLpredict according to the following procedures. • 1. Compound sock solutions were prepared by dissolving test compound and positive control in dimethyl sulfoxide (DMSO) at a concentration of 10 mM. Stock solutions were then diluted to 100 μM solutions by combining 198 μL of 50% acetonitrile/50% water with 2 μL of the 10 mM stock stock in separate conical tubes. • 2. Cryopreserved hepatocytes were prepared as follows: Incubation medium (William's E Medium supplemented with GlutaMAX) and hepatocyte thawing medium were placed in a 37° C. water bath and allowed to warm for at least 15 minutes prior to use. Cryopreserved hepatocytes were removed from storage, ensuring that vials remained at cryogenic temperatures until thawed. Cells were thawed by placing the vials in a 37° C. water bath and gently shaking the vials for 2 minutes. After thawing was completed, vials were sprayed with 70% ethanol and transferred to a biosafety cabinet. Hepatocytes were transferred into 50 mL conical tube containing thawing medium using wide-bore pipette tips. Tubes were placed into a centrifuge and spun at 100 g for 10 minutes. Then thawing medium was aspirated and hepatocytes were resuspended in enough incubation medium to yield−1.5×10^6 cells/mL. Cells were counted using acridine orange and propidium iodide (AO/PI) staining, and the viable cell density was determined. Cells were diluted with incubation medium to a working cell density of 0.5×10^6 viable cells/mL. • 3. To determine hepatocyte stability, 198 μL of hepatocytes were transferred into each well of a 96-well non-coated plate. Plates were placed in an incubator to allow the hepatocytes to warm for 10 minutes. • 4. The reaction was started by transferring 2 μL of the 100 μM test compound or positive control solution into respective wells of the 96-well non-coated plates. Plates were returned to the incubator until 25 μL aliquots of well contents were sampled at time points of 0, 15, 30, 60, 90 and 120 minutes. The aliquots were then mixed with 6 volumes (150 μL) of acetonitrile containing internal standard, IS (100 nM alprazolam, 200 nM caffeine and 100 nM tolbutamide) to terminate the reaction and vortexed for 5 minutes. After centrifuging the samples for 45 minutes at 3,220 g, aliquots of 100 μL of the supernatant were taken and diluted with 100 μL of ultra-pure water. The mixture was used for LC/MS/MS analysis. All incubations were performed in duplicate.
All calculations were carried out using Microsoft Excel. Peak area ratios (PAR) were determined from extracted ion chromatograms. The in vitro half-life (t1/2) of parent compound was determined by regression analysis of the percent parent disappearance vs. time curve as follows:
The in vitro half-life (in vitro t1/2) was determined from the slope value:
Conversion of the in vitro t1/2 (in minutes) into the in vitro intrinsic clearance (in vitro CLint, in μL/min/1×10^6 cells) was done using the following equation (mean of duplicate determinations): […]
The scaled-up intrinsic clearance (CLint, mL/min/kg), predicted hepatic clearance (CLH, mL/min/kg) and hepatic extraction ratio (ER) were calculated using the following equations:
CLint=(0.693/t1/2)*(1/(hepatocyte concentration (0.5*10^6 cells/mL))*scaling factors (Table (A)
• CLHept-predict=(QH*Scaled-up CLint*fub)/(QH+Scaled-up CLint*fub) • ER=CLH/QH • Where: • V=incubation volume (0.2 mL) • N=number of hepatocytes per well (0.1*10^6 cells) • QH=hepatic blood flow (mL/min/kg) (Table (A)
• fub=fraction of unbound drug in plasma, assumed to be 1 • Values used for calculation of the predicted hepatic clearance parameters data processing rules are outlined in the following tables (A) (B)

T1 sequence (Q5S007 1879-2138 limits assumed): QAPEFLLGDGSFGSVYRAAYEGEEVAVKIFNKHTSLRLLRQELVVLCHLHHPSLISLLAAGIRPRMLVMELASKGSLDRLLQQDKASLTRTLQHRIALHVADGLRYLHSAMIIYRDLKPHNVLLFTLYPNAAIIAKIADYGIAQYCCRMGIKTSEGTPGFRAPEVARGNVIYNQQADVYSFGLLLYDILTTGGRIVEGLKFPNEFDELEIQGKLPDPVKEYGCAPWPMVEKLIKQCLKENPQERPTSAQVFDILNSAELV

IC50 [1] | Caco-2 B2A (10^−6 cm/s) (Caco-2 cells) | Caco-2 ER (Caco-2 cells) | CLhep predicted at 1 µM [3] | SMILES | Caco-2 A2B (10^−6 cm/s) (Caco-2 cells) | hLM Cl (mL/min/kg) [2]
< 2 nM | H (H (High permeability)”: A2B (B2A)>5) | N (N (Non-substrate)”: ER<2.5) |  | Cc1n[nH]c2c1N=C(c1c(F)cccc1F)Nc1c-2cc(N2CCN(C)[C@H](C(F)(F)F)C2)nc1C (single isomer, unassigned) [Example 36] | H (H (High permeability)”: A2B (B2A)>5) | I* (I (Intermediate C1)”: 6.3 mL/min/kg≤Hep Cl≤14.7 mL/min/kg)
2 to 100 nM | L (L (Low permeability)”: A2B(B2A)<1) | N (N (Non-substrate)”: ER<2.5) |  | Cc1n[nH]c2c1N=C(c1c(F)cccc1F)Nc1c-2cc(N2CCOCC2)nc1C(F)(F)F [Example 4, 4-[8-(2,6-difluorophenyl)-5-methyl-11-(trifluoromethyl)-3,4,7,9,12-pentazatricyclo[8.4.0.02,6]tetradeca-1(10),2(6),4,7,11,13-hexaen-13-yl]morpholine] | M (M (Moderate permeability)”: 1≤A2B (B2A)≤5) | I* (I (Intermediate C1)”: 6.3 mL/min/kg≤Hep Cl≤14.7 mL/min/kg)

Continued, molecule first:

SMILES | IC50 [1] | Caco-2 B2A (10^−6 cm/s) (Caco-2 cells) | Caco-2 ER (Caco-2 cells) | CLhep predicted at 1 µM [3] | Caco-2 A2B (10^−6 cm/s) (Caco-2 cells) | hLM Cl (mL/min/kg) [2]
Cc1n[nH]c2c1N=C(c1c(F)cccc1F)Nc1c-2cc(N2CCO[C@@H](COC(F)(F)F)C2)nc1C [Example 48, (R)-4-(5-(2,6-difluorophenyl)-3,7-dimethyl-1,6-dihydropyrazolo[4,3-d]pyrido[4,3-f][1,3]diazepin-9-yl)-2-((trifluoromethoxy)methyl)morpholine] | < 2 nM | M (M (Moderate permeability)”: 1≤A2B (B2A)≤5) | N (N (Non-substrate)”: ER<2.5) |  | M (M (Moderate permeability)”: 1≤A2B (B2A)≤5) | I* (I (Intermediate C1)”: 6.3 mL/min/kg≤Hep Cl≤14.7 mL/min/kg)
Cc1n[nH]c2c1N=C(c1c(F)cccc1F)Nc1c-2cc(N2CC3CC(C2)O3)nc1C [Example 41, 3-(5-(2,6-difluorophenyl)-3,7-dimethyl-1,6-dihydropyrazolo[4,3-d]pyrido[4,3-f][1,3]diazepin-9-yl)-6-oxa-3-azabicyclo[3.1.1]heptane] | < 2 nM | H (H (High permeability)”: A2B (B2A)>5) | N (N (Non-substrate)”: ER<2.5) |  | H (H (High permeability)”: A2B (B2A)>5) | I* (I (Intermediate C1)”: 6.3 mL/min/kg≤Hep Cl≤14.7 mL/min/kg)
Cc1n[nH]c2c1N=C(c1c(F)cccc1F)Nc1c-2cc(N2CCC[C@@]3(CCOC3)C2)nc1C (single isomer, unassigned) [Example 50] | < 2 nM | H (H (High permeability)”: A2B (B2A)>5) | N (N (Non-substrate)”: ER<2.5) |  | H (H (High permeability)”: A2B (B2A)>5) | I* (I (Intermediate C1)”: 6.3 mL/min/kg≤Hep Cl≤14.7 mL/min/kg)
Cc1n[nH]c2c1N=C(c1c(F)cccc1F)Nc1cnc(-c3ccc(C(F)(F)F)nc3)cc1-2 [Example 58, 8-(2,6-difluorophenyl)-5-methyl-13-[6-(trifluoromethyl)-3-pyridyl]-3,4,7,9,12-pentazatricyclo[8.4.0.0^2,6]tetradeca-1(10),2(6),4,7,11,13-hexaene] | < 2 nM | H (H (High permeability)”: A2B (B2A)>5) | N (N (Non-substrate)”: ER<2.5) | 6.3 to 14.7 mL/min/kg | H (H (High permeability)”: A2B (B2A)>5) | 
Cc1n[nH]c2c1N=C(c1c(F)cccc1F)Nc1cnc(N3CC(F)(F)C3)cc1-2 [Example 2, 13-(3,3-difluoroazetidin-1-yl)-8-(2,6-difluorophenyl)-5-methyl-3,4,7,9,12-pentazatricyclo[8.4.0.02,6]tetradeca-1(10),2(6),4,7,11,13-hexaene] | < 2 nM | H (H (High permeability)”: A2B (B2A)>5) | N (N (Non-substrate)”: ER<2.5) | 6.3 to 14.7 mL/min/kg | H (H (High permeability)”: A2B (B2A)>5) | 
Cc1n[nH]c2c1N=C(c1c(F)cccc1F)Nc1c-2cc(C2CCOCC2)nc1C [Example 38, 8-(2,6-difluorophenyl)-5,11-dimethyl-13-tetrahydropyran-4-yl-3,4,7,9,12-pentazatricyclo[8.4.0.02,6]tetradeca-1(10),2(6),4,7,11,13-hexaene] | < 2 nM | H (H (High permeability)”: A2B (B2A)>5) | N (N (Non-substrate)”: ER<2.5) |  | H (H (High permeability)”: A2B (B2A)>5) | I* (I (Intermediate C1)”: 6.3 mL/min/kg≤Hep Cl≤14.7 mL/min/kg)
